Key:
Assay in all cases: relative viability (nuclei count vs DMSO), 5 days (fraction); higher = more cells survive
AZ505 + Trametinib = compound: C1CCC(CC1)N(CCNCCC2=C3C(=C(C=C2)O)NC(=O)CO3)C(=O)CCNCCC4=CC(=C(C=C4)Cl)Cl [AZ505] + CC(=O)Nc1cccc(-n2c(=O)n(C3CC3)c(=O)c3c(Nc4ccc(I)cc4F)n(C)c(=O)c(C)c32)c1 [Trametinib] (partner 0.02 µM)
Summary of the method: (§1)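 The day after seeding in 1536-well plates, lung cancer cell lines were treated by pin tool with a single drug, or with a fixed anchor-drug dose together with five library-drug doses (not always all listed) in √10 steps. After 5 days, a combined fix-and-stain solution (final 0.05% Triton X-100, 1% formaldehyde, 1 ug/ml Hoechst) was added. Nuclei counted on 4× images gave relative viability as treated counts over vehicle counts, reported as the median of duplicate plates.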

AZ505 + Luminespib = compound: C1CCC(CC1)N(CCNCCC2=C3C(=C(C=C2)O)NC(=O)CO3)C(=O)CCNCCC4=CC(=C(C=C4)Cl)Cl [AZ505] + CCNC(=O)c1noc(-c2cc(C(C)C)c(O)cc2O)c1-c1ccc(CN2CCOCC2)cc1 [Luminespib] (partner 0.01 µM)
Summary of the method: as §1

Dactolisib + Pictilisib = compound: Cn1c(=O)n(-c2ccc(C(C)(C)C#N)cc2)c2c3cc(-c4cnc5ccccc5c4)ccc3ncc21 [Dactolisib] + CS(=O)(=O)N1CCN(Cc2cc3nc(-c4cccc5[nH]ncc45)nc(N4CCOCC4)c3s2)CC1 [Pictilisib] (partner 1 µM)
Summary of the method: as §1

Dactolisib + Olaparib = compound: Cn1c(=O)n(-c2ccc(C(C)(C)C#N)cc2)c2c3cc(-c4cnc5ccccc5c4)ccc3ncc21 [Dactolisib] + O=C(c1cc(Cc2n[nH]c(=O)c3ccccc23)ccc1F)N1CCN(C(=O)C2CC2)CC1 [Olaparib] (partner 8 µM)
Summary of the method: as §1

Cell Line	relative viability (AZ505 + Trametinib; first compound 0.08 µM)	relative viability (AZ505 + Trametinib; first compound 0.253 µM)	relative viability (AZ505 + Trametinib; first compound 0.8 µM)	relative viability (AZ505 + Trametinib; first compound 2.53 µM)	relative viability (AZ505 + Trametinib; first compound 8 µM)	relative viability (AZ505 + Luminespib; first compound 0.08 µM)	relative viability (AZ505 + Luminespib; first compound 0.253 µM)	relative viability (AZ505 + Luminespib; first compound 0.8 µM)	relative viability (AZ505 + Luminespib; first compound 2.53 µM)	relative viability (AZ505 + Luminespib; first compound 8 µM)	relative viability (Dactolisib + Pictilisib; first compound 0.002 µM)	relative viability (Dactolisib + Pictilisib; first compound 0.006325 µM)	relative viability (Dactolisib + Pictilisib; first compound 0.02 µM)	relative viability (Dactolisib + Pictilisib; first compound 0.06325 µM)	relative viability (Dactolisib + Pictilisib; first compound 0.2 µM)	relative viability (Dactolisib + Olaparib; first compound 0.002 µM)	relative viability (Dactolisib + Olaparib; first compound 0.006325 µM)	relative viability (Dactolisib + Olaparib; first compound 0.02 µM)	relative viability (Dactolisib + Olaparib; first compound 0.06325 µM)	relative viability (Dactolisib + Olaparib; first compound 0.2 µM)
NCI-H2228	0.311	0.374	0.441	0.49	0.429	0.114	0.182	0.145	0.138	0.14	0.355	0.291	0.248	0.173	0.222	1.01	0.486	0.326	0.177	0.104
NCI-H2347	0.332	0.258	0.263	0.247	0.254	0.32	–	–	–	0.494	0.49	0.599	0.482	0.389	0.237	0.693	0.54	0.531	0.471	0.407
NCI-H2405	0.487	–	0.615	0.586	0.603	0.598	0.474	0.586	0.597	0.474	0.343	0.475	0.423	0.311	0.278	0.866	0.86	0.858	0.5	0.409
NCI-H3122	0.211	0.258	0.215	0.27	0.267	0.0979	0.0993	0.0953	0.0964	0.0997	0.59	0.608	0.575	0.442	0.336	0.564	0.557	0.659	0.629	0.641
PC-3 [JPC-3]	0.596	–	0.694	0.704	0.693	0.65	0.697	0.661	0.635	0.739	0.78	0.784	0.696	0.697	0.572	1.17	1.07	1.21	1.02	0.963
PC-14	0.711	0.884	0.76	0.747	0.786	0.135	0.215	0.135	0.145	0.132	0.9	0.586	0.412	0.196	0.0762	0.337	0.505	0.359	0.141	0.0895
RERF-LC-KJ	0.863	0.958	0.797	0.878	0.71	1.24	1.33	1.22	1.2	1.03	0.562	0.519	0.466	0.41	0.293	1.06	0.893	0.829	0.385	0.403
SK-LU-1	0.366	0.377	0.401	0.383	0.407	0.201	0.203	0.18	0.18	0.176	0.48	0.547	0.484	0.432	0.211	0.428	0.406	0.539	0.402	0.216
SK-MES-1	0.513	0.531	0.532	0.508	0.584	0.511	0.77	0.758	0.643	0.768	0.391	0.356	0.297	0.337	0.182	0.739	0.685	0.531	0.286	0.171
SW 1573	0.536	0.657	0.515	0.474	0.543	0.165	0.257	0.427	0.0963	0.277	0.609	0.446	0.405	0.35	0.15	0.557	0.324	0.418	0.162	0.145

Reference: the supplement of paper PMC10307832
